# Read-outs that look alike come from different tables or passages of the source.
# Tests used:
# VEGFR-2 = VEGFR-2 (Homo sapiens, UniProt P35968); assay: In vitro VEGFR2 enzyme inhibitory assay; format: biochemical; details: for VEGFR2 %inh at conc 0.01: conc 0.01, unit not given; for VEGFR2 %inh at conc 0.1: conc 0.1, unit not given; for VEGFR2 %inh at conc 1: conc 1, unit not given; for VEGFR2 %inh at conc 10: conc 10, unit not given; for target selectivity index EGFR over VGFR-2: fold, EGFR^WT versus VGFR-2
# Chain of VEGFR-2 (P35968 20-1356): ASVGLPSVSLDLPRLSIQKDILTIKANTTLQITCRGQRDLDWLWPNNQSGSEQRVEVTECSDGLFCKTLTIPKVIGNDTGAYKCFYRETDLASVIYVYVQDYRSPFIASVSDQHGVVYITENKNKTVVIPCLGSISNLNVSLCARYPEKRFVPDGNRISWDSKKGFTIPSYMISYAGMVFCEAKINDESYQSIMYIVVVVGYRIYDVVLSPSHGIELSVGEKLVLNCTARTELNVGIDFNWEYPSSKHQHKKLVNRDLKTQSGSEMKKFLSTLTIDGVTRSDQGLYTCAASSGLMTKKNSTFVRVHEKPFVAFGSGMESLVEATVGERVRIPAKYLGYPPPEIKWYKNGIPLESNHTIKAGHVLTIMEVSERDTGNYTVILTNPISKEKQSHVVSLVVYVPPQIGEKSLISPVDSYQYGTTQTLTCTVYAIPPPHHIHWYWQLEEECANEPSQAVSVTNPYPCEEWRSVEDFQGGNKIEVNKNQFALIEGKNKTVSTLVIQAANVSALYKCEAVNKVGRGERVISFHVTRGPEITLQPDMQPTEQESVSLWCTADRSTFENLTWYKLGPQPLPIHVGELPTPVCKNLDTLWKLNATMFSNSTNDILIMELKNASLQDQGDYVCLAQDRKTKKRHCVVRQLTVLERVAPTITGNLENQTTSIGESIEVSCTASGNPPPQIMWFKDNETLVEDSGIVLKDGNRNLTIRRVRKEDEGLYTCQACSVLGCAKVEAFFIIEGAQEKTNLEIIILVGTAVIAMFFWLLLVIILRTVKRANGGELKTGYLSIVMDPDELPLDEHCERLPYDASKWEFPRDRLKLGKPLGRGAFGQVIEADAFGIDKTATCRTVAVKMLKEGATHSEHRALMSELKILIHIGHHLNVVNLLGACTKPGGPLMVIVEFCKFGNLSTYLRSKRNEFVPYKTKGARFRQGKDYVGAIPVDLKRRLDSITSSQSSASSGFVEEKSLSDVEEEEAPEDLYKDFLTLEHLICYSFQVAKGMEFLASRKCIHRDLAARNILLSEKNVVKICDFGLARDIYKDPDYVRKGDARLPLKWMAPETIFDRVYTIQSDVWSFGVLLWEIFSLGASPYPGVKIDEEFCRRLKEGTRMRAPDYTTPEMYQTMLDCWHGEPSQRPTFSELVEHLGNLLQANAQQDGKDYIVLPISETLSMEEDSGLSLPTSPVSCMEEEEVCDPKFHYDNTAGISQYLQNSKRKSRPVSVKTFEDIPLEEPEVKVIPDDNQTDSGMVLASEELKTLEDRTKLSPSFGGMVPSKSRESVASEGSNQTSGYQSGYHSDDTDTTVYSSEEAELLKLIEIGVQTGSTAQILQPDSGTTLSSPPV
# Experimental: (§1) Curve fitting was performed using GraphPad Prism.
# (§2) (1 picture or pasted object on this page, not shown here)
# Topo-II [1] = molecular target: T1, Topo-II (Homo sapiens, UniProt Q02880); assay: In vitro Topo II inhibitory assay; format: biochemical; details: for TOPO IiB %inh at conc 0.1: conc 0.1, unit not given; for TOPO IiB %inh at conc 1: conc 1, unit not given; for TOPO IiB %inh at conc 10: conc 10, unit not given; for TOPO IiB %inh at conc 100: conc 100, unit not given
# T1 construct: purchased
# Experimental: as §1, §2
# Topo-II [2] = assay: In vitro Topo II inhibitory assay; format: biochemical, Human; details: fold, EGFR^WT versus Topo-II
# Experimental: as §1, §2
# MCF-7 = assay: MTT cytotoxicity assay, MCF-7; format: cell-based; details: Homo sapiens, MCF7
# Experimental: (§5) The cytotoxic activity was assessed using the 3-(4,5-dimethylthiazol-2-yl)-2,5-diphenyl tetrazolium bromide (MTT) colorimetric assay, as reported previously [62, 63]. […] Briefly, the designated cell lines were cultured at a concentration of 5 × 10^4 cell/well in 96-well plates. The cells were incubated for 24 h under optimum conditions. Following this, the designated molecules were introduced (in serial dilutions from 0 to 50 μg/mL), and the cells were incubated for an additional 24 h. Following this, the media were withdrawn, and 100 μL of fresh medium was added. Then, 10 µL of the 12 mM MTT stock solution was administered to each well. The plates were then incubated for 4 h. Then, the cells were exposed to different compounds at the desired concentrations (0.01, 0.1, 1, 10, and 100 µM) or to 1% dimethyl sulfoxide (DMSO) for 48 and 72 h. […] Then, the optical density was measured at 590 nm with the microplate reader (Sunrise, TECAN, Inc., Morrisville, NC, USA).
# HCT-116 = assay: MTT cytotoxicity assay, HCT-116; format: cell-based; details: Homo sapiens
# Experimental: as §5
# [3] = system: MCF-7, HCT116, and HePG-2; assay: MTT assay against three malignant cell lines (summary); format: cell-based; details: Homo sapiens, read-out: IC50 cytotoxicity (range over cell lines)
# Experimental: (§3) According to our design, the tested compounds are classified into four categories based on the length and the chemotype of the spacer (Figure 3). In the first category, we used monosubstituted hydrazone linker. […] The second category is represented by […] hydrazone linker.
# (§4) The cytotoxic activity was assessed using the 3-(4,5-dimethylthiazol-2-yl)-2,5-diphenyl tetrazolium bromide (MTT) colorimetric assay, as reported previously. Doxorubicin was used as a reference standard, and DMSO was used as a negative control. Briefly, the designated cell lines were cultured at a concentration of 5 × 10^4 cell/well in 96-well plates. The cells were incubated for 24 h under optimum conditions. Following this, the designated molecules were introduced (in serial dilutions from 0 to 50 μg/mL), and the cells were incubated for an additional 24 h. Following this, the media were withdrawn, and 100 μL of fresh medium was added. Then, 10 µL of the 12 mM MTT stock solution was administered to each well. The plates were then incubated for 4 h. […] An 85-μL aliquot of the media was removed from the wells, and 50 µL of DMSO was added to each well and mixed thoroughly with the pipette and incubated at 37 °C for 10 min. Then, the optical density was measured at 590 nm with the microplate reader (Sunrise, TECAN, Inc., Morrisville, NC, USA).
# EGFR^T790M = EGFR^T790M (Homo sapiens, UniProt P00533, T790M); assay: In vitro EGFR T790M kinase inhibitory assay
# Chain of EGFR^T790M (P00533 25-1210 T790M): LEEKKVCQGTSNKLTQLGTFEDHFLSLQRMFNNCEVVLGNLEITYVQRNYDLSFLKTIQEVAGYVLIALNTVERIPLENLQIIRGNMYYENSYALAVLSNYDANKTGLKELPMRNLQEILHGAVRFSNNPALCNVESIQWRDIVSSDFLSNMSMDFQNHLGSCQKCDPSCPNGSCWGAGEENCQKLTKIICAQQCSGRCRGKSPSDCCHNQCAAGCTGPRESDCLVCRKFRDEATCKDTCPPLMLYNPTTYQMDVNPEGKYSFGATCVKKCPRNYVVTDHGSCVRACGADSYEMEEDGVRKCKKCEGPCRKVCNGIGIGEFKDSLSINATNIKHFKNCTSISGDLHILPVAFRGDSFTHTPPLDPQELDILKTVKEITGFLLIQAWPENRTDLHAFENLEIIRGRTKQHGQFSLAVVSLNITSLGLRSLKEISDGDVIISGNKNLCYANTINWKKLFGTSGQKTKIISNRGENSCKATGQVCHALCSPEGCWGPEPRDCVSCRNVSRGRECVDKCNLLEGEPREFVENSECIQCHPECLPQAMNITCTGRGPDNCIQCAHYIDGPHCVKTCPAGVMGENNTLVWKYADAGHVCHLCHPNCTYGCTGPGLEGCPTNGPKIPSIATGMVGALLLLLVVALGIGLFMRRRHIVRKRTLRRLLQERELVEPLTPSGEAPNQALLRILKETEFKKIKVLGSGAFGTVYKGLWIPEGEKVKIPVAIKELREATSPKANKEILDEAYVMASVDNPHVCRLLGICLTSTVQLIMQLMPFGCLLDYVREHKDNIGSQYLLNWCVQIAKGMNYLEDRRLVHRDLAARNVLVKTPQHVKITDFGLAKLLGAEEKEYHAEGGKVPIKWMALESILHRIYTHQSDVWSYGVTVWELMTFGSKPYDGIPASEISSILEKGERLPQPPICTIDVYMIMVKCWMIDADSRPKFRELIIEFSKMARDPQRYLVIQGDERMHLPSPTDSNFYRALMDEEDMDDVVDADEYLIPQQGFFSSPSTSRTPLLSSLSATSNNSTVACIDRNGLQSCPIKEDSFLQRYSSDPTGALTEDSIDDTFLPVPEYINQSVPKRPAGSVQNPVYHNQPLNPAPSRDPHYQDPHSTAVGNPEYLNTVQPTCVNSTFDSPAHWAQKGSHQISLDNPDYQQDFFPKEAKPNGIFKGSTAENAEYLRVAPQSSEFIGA
# Experimental: The assays were conducted in Vacsera (Giza, Egypt). Curve fitting was performed using GraphPad Prism. Data are represented as means ± SD from three independent experiments.
# Assay : EGFR-T490M kinase assay
# Reader : Tecan-spark reader
# Kit used : BPS bioscience EGFR assay kit.
# MCF-7 cells [4] = assay: Cell cycle analysis (propidium iodide flow cytometry); format: cell-based, human; details: MCF-7, 3.81 μM for 24 h (text: 1 μM)
# EGFR^WT = EGFR^WT (Homo sapiens, UniProt P00533); assay: In vitro EGFR enzyme inhibitory assay; format: biochemical; details: for EGFR %inh at conc 0.01: conc 0.01, unit not given; for EGFR %inh at conc 0.1: conc 0.1, unit not given; for EGFR %inh at conc 1: conc 1, unit not given; for EGFR %inh at conc 10: conc 10, unit not given
# Chain of EGFR^WT (P00533 25-1210): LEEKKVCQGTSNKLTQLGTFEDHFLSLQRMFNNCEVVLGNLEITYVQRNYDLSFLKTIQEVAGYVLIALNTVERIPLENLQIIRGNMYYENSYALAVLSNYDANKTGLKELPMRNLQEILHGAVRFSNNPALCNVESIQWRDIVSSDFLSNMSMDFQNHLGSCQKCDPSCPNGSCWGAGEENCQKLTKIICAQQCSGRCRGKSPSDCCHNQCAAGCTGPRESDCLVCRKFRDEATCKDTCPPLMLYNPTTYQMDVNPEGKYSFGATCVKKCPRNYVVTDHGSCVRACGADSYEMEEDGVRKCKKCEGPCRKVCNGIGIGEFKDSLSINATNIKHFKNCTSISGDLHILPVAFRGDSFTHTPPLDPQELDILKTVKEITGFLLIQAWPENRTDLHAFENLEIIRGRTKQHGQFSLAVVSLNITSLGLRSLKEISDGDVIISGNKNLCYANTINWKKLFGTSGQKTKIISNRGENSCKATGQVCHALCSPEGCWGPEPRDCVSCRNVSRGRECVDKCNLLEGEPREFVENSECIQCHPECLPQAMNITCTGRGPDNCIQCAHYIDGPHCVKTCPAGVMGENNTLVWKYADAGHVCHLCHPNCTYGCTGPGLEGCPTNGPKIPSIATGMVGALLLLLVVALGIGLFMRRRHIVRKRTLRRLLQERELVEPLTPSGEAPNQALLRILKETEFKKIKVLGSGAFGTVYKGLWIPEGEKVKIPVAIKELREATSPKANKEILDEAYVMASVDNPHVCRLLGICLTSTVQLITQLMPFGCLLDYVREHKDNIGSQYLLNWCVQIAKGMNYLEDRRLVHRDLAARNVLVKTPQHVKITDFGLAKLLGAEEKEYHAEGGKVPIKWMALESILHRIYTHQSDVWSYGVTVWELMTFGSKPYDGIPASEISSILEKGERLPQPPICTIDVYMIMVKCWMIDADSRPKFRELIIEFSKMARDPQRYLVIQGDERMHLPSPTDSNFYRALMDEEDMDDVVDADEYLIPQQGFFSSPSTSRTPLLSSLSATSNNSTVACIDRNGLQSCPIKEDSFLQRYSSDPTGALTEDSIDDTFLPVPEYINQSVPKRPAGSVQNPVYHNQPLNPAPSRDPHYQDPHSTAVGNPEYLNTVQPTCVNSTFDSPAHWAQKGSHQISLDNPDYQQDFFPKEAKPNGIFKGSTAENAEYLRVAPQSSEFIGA
# MCF-7 cells [5] = assay: Annexin V-FITC/PI apoptosis assay; format: cell-based, human; details: MCF-7, 3.81 μM
# Experimental: We used annexin V-binding studies via flow cytometer to confirm the apoptosis induction by our compound. The apoptotic nature of 5i against MCF-7 cells was tested via flow cytometry detection after double-staining with Annexin V-FITC and propidium iodide (PI).
# Annexin V-FITC apoptosis assay was conducted utilizing the Annexin V-FITC/PI double staining detection kit (BD Pharmingen, San Diego, CA, USA), as described elsewhere.
# HePG-2 = assay: MTT cytotoxicity assay, HePG-2; format: cell-based; details: Homo sapiens, HepG2
# Experimental: as §4
# WI-38 = assay: MTT assay on normal cell line WI-38; format: cell-based; details: normal human diploid fibroblasts
# Experimental: as §3, §4
# [6] = supplement lab report, read-out: VEGFR2 IC50 (lab report) (converted)
# [7] = supplement lab report, Human DNA Topoisomerase 2B Kit, read-out: TOP2a IC50 (lab report) (converted)
# [8] = 24 h incubation, read-out: IC50 MCF-7 24 h
# [9] = 48 h incubation, read-out: IC50 MCF-7 48 h
# [10] = 72 h incubation, read-out: IC50 MCF-7 72 h
# [11] = MTT, breast cancer cells, read-out: IC50 MCF-7
# [12] = HCT-116, read-out: IC50 HCT-116, MTT, colon cancer cells
# [13] = HCT-116, 24 h incubation, read-out: IC50 HCT116 24 h
# [14] = HCT-116, 48 h incubation, read-out: IC50 HCT116 48 h
# [15] = HCT-116, 72 h incubation, read-out: IC50 HCT116 72 h
# [16] = supplement lab report, read-out: EGFR IC50 (lab report) (converted)
# [17] = 24 h incubation, read-out: IC50 HePG-2 24 h
# [18] = 48 h incubation, read-out: IC50 HePG-2 48 h
# [19] = 72 h incubation, read-out: IC50 HePG-2 72 h
# [20] = MTT, liver cancer cells, read-out: IC50 HePG-2
structure (smiles),measurement,setting,value
"CC(=NNc1nc(C)nc2c1cnn2-c1ccccc1)c1ccccc1 [Compound 5i, 6-Methyl-1-phenyl-4-(2-(1-phenylethylidene)hydrazinyl)-1H-pyrazolo[3,4-d]pyrimidine]",VEGFR2 %inh at conc 0.01,VEGFR-2,7.5%
same,VEGFR2 %inh at conc 0.1,VEGFR-2,19%
same,VEGFR2 %inh at conc 1,VEGFR-2,58%
same,VEGFR2 %inh at conc 10,VEGFR-2,84%
same,target selectivity index EGFR over VGFR-2,VEGFR-2,20
same,IC50,VEGFR-2; read-out: IC50 VGFR2,7.6 ± 0.15 µM
same,IC50,VEGFR-2; [6],7.58 µM
same,TOPO IiB %inh at conc 0.1,Topo-II [1],13%
same,TOPO IiB %inh at conc 1,Topo-II [1],27%
same,TOPO IiB %inh at conc 10,Topo-II [1],51%
same,TOPO IiB %inh at conc 100,Topo-II [1],74%
same,IC50,Topo-II [1]; read-out: IC50 Topo-II,24.7 ± 0.51 µM
same,IC50,Topo-II [1]; [7],24.7 µM
same,target selectivity index EGFR over Topo-II,Topo-II [2],66
same,melting point,,245 to 247 °C
same,IC50,MCF-7; [8],3.81 ± 0.3 µM
same,IC50,MCF-7; [9],3.34 ± 0.2 µM
same,IC50,MCF-7; [10],1.24 ± 0.3 µM
same,IC50,MCF-7; [11],3.81 ± 0.3 µM
same,IC50,HCT-116; [12],4.38 ± 0.2 µM
same,IC50,HCT-116; [13],4.38 ± 0.2 µM
same,IC50,HCT-116; [14],4.01 ± 0.3 µM
same,IC50,HCT-116; [15],2.76 ± 0.3 µM
same,IC50,[3],3 to 10 µM
same,IC50,EGFR^T790M,0.56 ± 0.04 µM
same,EGFR T790M %inh at conc 0.01,EGFR^T790M; conc 0.01 (conc.ng/ml),37%
same,EGFR T790M %inh at conc 0.1,EGFR^T790M; conc 0.1 (conc.ng/ml),50%
same,EGFR T790M %inh at conc 1,EGFR^T790M; conc 1 (conc.ng/ml),76%
same,EGFR T790M %inh at conc 10,EGFR^T790M; conc 10 (conc.ng/ml),89%
same,DNA content %G0-G1,MCF-7 cells [4],49.63%
same,DNA content %Pre-G1,MCF-7 cells [4],36.06%
same,DNA content %S,MCF-7 cells [4],43.12%
same,EGFR %inh at conc 0.01,EGFR^WT,36%
same,EGFR %inh at conc 0.1,EGFR^WT,52%
same,EGFR %inh at conc 1,EGFR^WT,73%
same,EGFR %inh at conc 10,EGFR^WT,88%
same,IC50,EGFR^WT; [16],0.187 µM
same,Apoptosis Total,MCF-7 cells [5]; 24 h,36.06%
same,Necrosis,MCF-7 cells [5]; 24 h,4.33%
same,Apoptosis Early,MCF-7 cells [5]; 24 h (text: 48 h),12.62%
same,Apoptosis Late,MCF-7 cells [5]; 24 h (text: 48 h),19.11%
same,IC50,HePG-2; [17],6.38 ± 0.1 µM
same,IC50,HePG-2; [18],3.34 ± 0.2 µM
same,IC50,HePG-2; [19],2.42 ± 0.2 µM
same,IC50,HePG-2; [20],6.38 ± 0.1 µM
"Cc1nc(NNC(=S)Nc2ccccc2)c2cnn(-c3ccccc3)c2n1 [Compound 9e, 2-(6-Methyl-1-phenyl-1H-pyrazolo[3,4-d]pyrimidin-4-yl)-N-phenylhydrazinecarbothioamide]",VEGFR2 %inh at conc 0.01,VEGFR-2,14%
same,VEGFR2 %inh at conc 0.1,VEGFR-2,26%
same,VEGFR2 %inh at conc 1,VEGFR-2,46%
same,VEGFR2 %inh at conc 10,VEGFR-2,72%
same,target selectivity index EGFR over VGFR-2,VEGFR-2,21
same,IC50,VEGFR-2; read-out: IC50 VGFR2,16.2 ± 0.36 µM
same,IC50,VEGFR-2; [6],16.2 µM
same,TOPO IiB %inh at conc 0.1,Topo-II [1],4%
same,TOPO IiB %inh at conc 1,Topo-II [1],16%
same,TOPO IiB %inh at conc 10,Topo-II [1],34%
same,TOPO IiB %inh at conc 100,Topo-II [1],65%
same,IC50,Topo-II [1]; read-out: IC50 Topo-II,24.6 ± 0.54 µM
same,IC50,Topo-II [1]; [7],24.6 µM
same,target selectivity index EGFR over Topo-II,Topo-II [2],31
same,melting point,,281 to 282 °C
same,IC50,MCF-7; [8],8.99 ± 0.5 µM
same,IC50,MCF-7; [9],8.16 ± 0.8 µM
same,IC50,MCF-7; [10],7.45 ± 0.7 µM
same,IC50,MCF-7; [11],8.99 ± 0.5 µM
same,IC50,HCT-116; [12],6.87 ± 0.5 µM
same,IC50,HCT-116; [13],6.87 ± 0.5 µM
same,IC50,HCT-116; [14],6.77 ± 0.4 µM
same,IC50,HCT-116; [15],5.55 ± 0.4 µM
same,IC50,"WI-38; Homo sapiens, WI-38, MTT",> 35 µM
same,IC50,WI-38; MTT,66 ± 0.23 µM
same,IC50,[3],3 to 10 µM
same,EGFR %inh at conc 0.01,EGFR^WT,20%
same,EGFR %inh at conc 0.1,EGFR^WT,42%
same,EGFR %inh at conc 1,EGFR^WT,58%
same,EGFR %inh at conc 10,EGFR^WT,83%
same,IC50,EGFR^WT; read-out: IC50 EGFR^WT,0.77 ± 0.018 µM
same,IC50,EGFR^WT; [16],0.77 µM
same,IC50,HePG-2; [17],7.8 ± 0.4 µM
same,IC50,HePG-2; [18],8.28 ± 0.8 µM
same,IC50,HePG-2; [19],5.93 ± 0.5 µM
same,IC50,HePG-2; [20],7.8 ± 0.4 µM
